PMC6017193, “Structure-Based Discovery of a Series of 5H-Pyrrolo[2,3-b]pyrazine FGFR Kinase Inhibitors” (Molecules : A Journal of Synthetic Chemistry and Natural …, 2018)

Assays:
[1] = molecular target: VEGFR-1 (Homo sapiens, UniProt P17948); assay: Kinase panel profiling; type: biochemical
[2] = molecular target: IGF1R (Homo sapiens, UniProt P08069); assay: Kinase panel profiling; type: biochemical
[3] = molecular target: T1, FGFR1 (Homo sapiens, UniProt P11362); assay: ELISA kinase assay, FGFR1 enzymatic activity; type: biochemical
T1 construct: purchased Millipore
Procedure: (§1) The effects of compounds on the activities of indicated (FGFR1 and c-Met) kinases were determined using enzyme-linked immunosorbent assays (ELISAs) with purified recombinant proteins. Briefly, 20 μg/mL poly (Glu, Tyr)4:1 (Sigma, St. Louis, MO, USA) was precoated in 96-well plates as a substrate. A 50-μL aliquot of 10 μmol/L ATP solution diluted in kinase reaction buffer (50 mmol/L HEPES (pH 7.4), 50 mmol/L MgCl2, 0.5 mmol/L MnCl2, 0.2 mmol/L Na3VO4, and 1 mmol/L DTT) was added to each well; 1 μL of various concentrations of compounds diluted in 1% DMSO (v/v) (Sigma) were then added to each reaction well. DMSO (1%, v/v) was used as the negative control. The kinase reaction was initiated by the addition of purified tyrosine kinase proteins FGFR1 (Millipore, Darmstadt, Germany) or c-Met (Millipore) diluted in 49 μL of kinase reaction buffer. After incubation for 60 min at 37 °C, the plate was washed three times with phosphate-buffered saline (PBS) containing 0.1% Tween 20 (T-PBS). Anti-phosphotyrosine (PY99) antibody (Sanra Cruz, Dallas, TX, USA) (100 μL; 1:500, diluted in 5 mg/mL bovine serum albumin (BSA) T-PBS) was then added. After a 30-min incubation at 37 °C, the plate was washed three times, and 100 μL of horseradish peroxidase-conjugated goat anti-mouse IgG (Calbiochem, Shanghai, China) (1:2000, diluted in 5 mg/mL BSA T-PBS) was added. The plate was then incubated at 37 °C for 30 min, and washed three times. A 100-μL aliquot of a solution containing 0.03% H2O2 and 2 mg/mL o-phenylenediamine in 0.1 mol/L citrate buffer (pH 5.5) was added. The reaction was terminated by the addition of 50 μL of 2 mol/L H2SO4 as the color changed, and the plate was analyzed using a multi-well spectrophotometer (SpectraMAX 190, Molecular Devices, Palo Alto, CA, USA) at 490 nm. The inhibition rate (%) was calculated using the following equation:IR = [1 − (A490/A490control)] × 100%.(1) where IR, A490, and A490control are the inhibition rate, the absorbance value of the tested compound at 490 nm, and the absorbance value of the negative control compound at 490 nm, respectively. The IC50 values were calculated from the inhibition curves in two separate experiments.

[4] = molecular target: ErbB2 (Homo sapiens, UniProt P04626); assay: Kinase panel profiling; type: biochemical
[5] = molecular target: EPH-A2 (Homo sapiens, UniProt P29317); assay: Kinase panel profiling; type: biochemical
[6] = test system: KG1 leukemia cell line harboring FGFR1OP-FGFR1 fusion; assay: Cell proliferation assay in KG1 cells (SRB or MTT, 72 h); type: cell-based; details: Homo sapiens, KG-1, mean ± SD from two separate experiments, read-out: KG1 IC50 (antiproliferation activity)
Procedure: Cell proliferation was examined in a FGFR1-translocated KG1 leukemia cell line harboring FGFR1OP-FGFR1 fusion. The original KG1 cell line was purchased from ATCC (CRL-8031), and cultured according the ATCC standard protocol. Cells were seeded in 96-well tissue culture plates. On the next day, the cells were exposed to various concentrations of compounds and further cultured for 72 h. Cell proliferation was then determined using sulforhodamine B (SRB, from Sigma-Aldrich, St Louis, MO, USA) or the thiazolyl blue tetrazolium bromide (MTT, from Sigma-Aldrich, St Louis, MO, USA) assay. The IC50 values were calculated by concentration- response curve fitting using the four-parameter method.

[7] = molecular target: T2, c-Met (Homo sapiens, UniProt P08581); assay: Kinase panel profiling (ELISA kinase assay); type: biochemical
T2 construct: purchased Millipore
Procedure: as §1

[8] = molecular target: ROS1 (Homo sapiens, UniProt P08922); assay: Kinase panel profiling; type: biochemical
Chain of ROS1 (P08922 28-2347, species assumed): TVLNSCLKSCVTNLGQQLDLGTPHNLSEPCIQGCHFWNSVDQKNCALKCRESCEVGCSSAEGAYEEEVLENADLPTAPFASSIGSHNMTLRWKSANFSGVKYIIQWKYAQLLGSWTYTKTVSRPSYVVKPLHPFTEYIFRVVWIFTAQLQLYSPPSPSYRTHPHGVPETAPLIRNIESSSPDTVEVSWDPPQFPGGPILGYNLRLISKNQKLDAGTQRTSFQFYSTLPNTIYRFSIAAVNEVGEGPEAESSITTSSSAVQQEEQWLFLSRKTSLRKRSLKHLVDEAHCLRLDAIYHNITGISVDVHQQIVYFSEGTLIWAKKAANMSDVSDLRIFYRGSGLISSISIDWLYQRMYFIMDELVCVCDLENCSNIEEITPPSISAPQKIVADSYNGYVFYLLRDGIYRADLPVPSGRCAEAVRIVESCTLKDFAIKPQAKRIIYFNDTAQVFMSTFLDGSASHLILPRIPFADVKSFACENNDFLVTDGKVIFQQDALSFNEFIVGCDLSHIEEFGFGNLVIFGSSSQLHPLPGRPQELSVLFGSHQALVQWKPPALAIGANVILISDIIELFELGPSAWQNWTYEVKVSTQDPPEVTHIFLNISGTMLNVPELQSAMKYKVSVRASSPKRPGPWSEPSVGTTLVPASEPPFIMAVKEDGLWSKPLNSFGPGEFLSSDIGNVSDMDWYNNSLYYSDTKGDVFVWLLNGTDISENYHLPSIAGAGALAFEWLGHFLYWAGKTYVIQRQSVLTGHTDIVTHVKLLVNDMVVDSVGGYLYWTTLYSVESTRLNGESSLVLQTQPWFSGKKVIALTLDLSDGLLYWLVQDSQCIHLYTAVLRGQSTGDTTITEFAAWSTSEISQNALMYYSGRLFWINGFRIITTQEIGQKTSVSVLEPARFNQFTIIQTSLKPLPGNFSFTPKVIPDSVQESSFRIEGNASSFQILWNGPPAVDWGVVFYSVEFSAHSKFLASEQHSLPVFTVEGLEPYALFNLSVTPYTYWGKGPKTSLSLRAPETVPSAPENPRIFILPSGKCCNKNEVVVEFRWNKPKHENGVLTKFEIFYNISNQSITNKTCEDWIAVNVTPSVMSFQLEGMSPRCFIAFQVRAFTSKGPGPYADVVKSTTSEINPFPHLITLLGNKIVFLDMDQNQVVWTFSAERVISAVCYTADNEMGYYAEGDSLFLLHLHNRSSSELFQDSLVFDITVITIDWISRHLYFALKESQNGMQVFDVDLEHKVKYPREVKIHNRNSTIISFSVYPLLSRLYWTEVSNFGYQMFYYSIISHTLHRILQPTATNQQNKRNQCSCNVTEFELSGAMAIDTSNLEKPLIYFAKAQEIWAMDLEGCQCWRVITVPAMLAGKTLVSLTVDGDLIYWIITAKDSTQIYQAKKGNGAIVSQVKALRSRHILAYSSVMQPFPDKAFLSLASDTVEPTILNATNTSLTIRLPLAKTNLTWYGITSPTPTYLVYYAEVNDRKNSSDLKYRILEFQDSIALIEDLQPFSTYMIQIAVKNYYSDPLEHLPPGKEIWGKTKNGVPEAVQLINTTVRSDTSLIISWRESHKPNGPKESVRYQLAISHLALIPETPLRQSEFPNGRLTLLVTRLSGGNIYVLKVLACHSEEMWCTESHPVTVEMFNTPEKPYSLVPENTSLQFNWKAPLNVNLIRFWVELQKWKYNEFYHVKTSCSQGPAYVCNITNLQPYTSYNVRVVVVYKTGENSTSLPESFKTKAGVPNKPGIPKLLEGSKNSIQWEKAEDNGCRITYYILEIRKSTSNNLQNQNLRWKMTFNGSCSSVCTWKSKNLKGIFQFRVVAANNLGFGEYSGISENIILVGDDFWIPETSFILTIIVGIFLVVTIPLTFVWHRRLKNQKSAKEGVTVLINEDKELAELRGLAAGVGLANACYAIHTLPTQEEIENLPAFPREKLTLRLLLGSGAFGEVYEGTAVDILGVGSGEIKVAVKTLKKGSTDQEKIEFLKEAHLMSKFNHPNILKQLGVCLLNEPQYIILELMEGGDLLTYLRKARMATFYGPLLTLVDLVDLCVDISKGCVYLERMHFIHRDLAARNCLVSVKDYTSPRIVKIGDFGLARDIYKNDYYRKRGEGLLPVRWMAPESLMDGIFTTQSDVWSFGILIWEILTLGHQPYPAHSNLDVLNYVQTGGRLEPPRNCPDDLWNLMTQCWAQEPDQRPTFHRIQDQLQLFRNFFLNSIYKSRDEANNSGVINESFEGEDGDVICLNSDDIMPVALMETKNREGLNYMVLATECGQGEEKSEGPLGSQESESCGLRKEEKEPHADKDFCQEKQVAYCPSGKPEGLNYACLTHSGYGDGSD

[9] = molecular target: PDGFR-α (Homo sapiens, UniProt P16234); assay: Kinase panel profiling; type: biochemical
[10] = molecular target: FGFR3 (Homo sapiens, UniProt P22607); assay: Kinase panel profiling; type: biochemical
[11] = Human liver microsome stability test; type: in vitro ADME; details: human liver microsomes, pH 7.4, 1 μM test compound, read-out: HLM (human liver microsome stability test, clearance)
Procedure: Microsomes (Human microsome: Xenotech, Lot No.H0610; Rat microsome: Xenotech, Lot No. R1000) (0.5 mg/mL) were preincubated with 1 μM of test compound for 5 min at 37 °C in 0.1 M phosphate buffer (pH 7.4) with 1 mmol Ethylenediaminetetraacetic acid (EDTA), and 5 mmol MgCl2. The reactions were initiated by adding prewarmed cofactors (1 mmol NADPH). After 0-min, 5-min, 10-min, and 30-min incubations at 37 °C, the reactions were stopped by adding an equal volume of cold acetonitrile. The samples were vortexed for 10 min, and then centrifuged at 10,000× g for 10 min. Supernatants were analyzed by LC/MS/MS for the amount of the parent compound remaining, and the corresponding loss of the parent compound was also determined by LC/MS/MS.

[12] = molecular target: Src (Homo sapiens, UniProt P12931); assay: Kinase panel profiling; type: biochemical
[13] = molecular target: EGFR (Homo sapiens, UniProt P00533); assay: Kinase panel profiling; type: biochemical
[14] = molecular target: KDR (Homo sapiens, UniProt P35968); assay: Kinase panel profiling; type: biochemical
Chain of KDR (P35968 20-1356, species assumed): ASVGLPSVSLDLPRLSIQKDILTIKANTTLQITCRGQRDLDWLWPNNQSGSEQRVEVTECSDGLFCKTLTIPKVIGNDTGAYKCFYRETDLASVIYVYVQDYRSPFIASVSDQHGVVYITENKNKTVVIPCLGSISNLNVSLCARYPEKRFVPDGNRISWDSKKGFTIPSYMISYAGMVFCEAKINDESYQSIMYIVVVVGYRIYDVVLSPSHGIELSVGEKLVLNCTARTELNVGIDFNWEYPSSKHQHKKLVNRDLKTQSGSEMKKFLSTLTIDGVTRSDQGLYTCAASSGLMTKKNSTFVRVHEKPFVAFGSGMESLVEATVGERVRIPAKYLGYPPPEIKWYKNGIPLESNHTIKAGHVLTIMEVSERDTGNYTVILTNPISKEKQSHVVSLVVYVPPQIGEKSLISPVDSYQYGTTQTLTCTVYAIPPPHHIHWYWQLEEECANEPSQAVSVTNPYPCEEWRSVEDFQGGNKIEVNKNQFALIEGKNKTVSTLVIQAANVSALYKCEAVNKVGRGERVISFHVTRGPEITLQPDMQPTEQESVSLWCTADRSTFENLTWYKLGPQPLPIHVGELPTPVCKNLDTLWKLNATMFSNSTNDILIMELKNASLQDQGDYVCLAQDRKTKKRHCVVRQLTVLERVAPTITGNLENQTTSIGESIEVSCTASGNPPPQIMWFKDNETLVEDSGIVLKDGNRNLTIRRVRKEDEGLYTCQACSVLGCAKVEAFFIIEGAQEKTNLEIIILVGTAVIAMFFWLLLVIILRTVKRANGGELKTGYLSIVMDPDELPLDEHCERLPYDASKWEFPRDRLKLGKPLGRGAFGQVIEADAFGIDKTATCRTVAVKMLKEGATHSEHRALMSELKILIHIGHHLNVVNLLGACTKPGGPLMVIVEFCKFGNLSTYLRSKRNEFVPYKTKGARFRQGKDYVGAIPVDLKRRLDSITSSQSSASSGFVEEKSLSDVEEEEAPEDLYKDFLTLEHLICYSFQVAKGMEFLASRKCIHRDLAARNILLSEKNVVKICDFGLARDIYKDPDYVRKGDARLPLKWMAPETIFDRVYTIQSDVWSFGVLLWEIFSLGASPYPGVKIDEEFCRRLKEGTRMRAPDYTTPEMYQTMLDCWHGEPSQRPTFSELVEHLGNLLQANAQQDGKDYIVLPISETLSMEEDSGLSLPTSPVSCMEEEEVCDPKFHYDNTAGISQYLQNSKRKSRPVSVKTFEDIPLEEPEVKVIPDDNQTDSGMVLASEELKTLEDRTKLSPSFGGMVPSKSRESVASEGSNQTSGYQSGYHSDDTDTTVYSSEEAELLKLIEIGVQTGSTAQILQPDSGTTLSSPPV

Chain of VEGFR-1 (P17948 27-1338, species assumed): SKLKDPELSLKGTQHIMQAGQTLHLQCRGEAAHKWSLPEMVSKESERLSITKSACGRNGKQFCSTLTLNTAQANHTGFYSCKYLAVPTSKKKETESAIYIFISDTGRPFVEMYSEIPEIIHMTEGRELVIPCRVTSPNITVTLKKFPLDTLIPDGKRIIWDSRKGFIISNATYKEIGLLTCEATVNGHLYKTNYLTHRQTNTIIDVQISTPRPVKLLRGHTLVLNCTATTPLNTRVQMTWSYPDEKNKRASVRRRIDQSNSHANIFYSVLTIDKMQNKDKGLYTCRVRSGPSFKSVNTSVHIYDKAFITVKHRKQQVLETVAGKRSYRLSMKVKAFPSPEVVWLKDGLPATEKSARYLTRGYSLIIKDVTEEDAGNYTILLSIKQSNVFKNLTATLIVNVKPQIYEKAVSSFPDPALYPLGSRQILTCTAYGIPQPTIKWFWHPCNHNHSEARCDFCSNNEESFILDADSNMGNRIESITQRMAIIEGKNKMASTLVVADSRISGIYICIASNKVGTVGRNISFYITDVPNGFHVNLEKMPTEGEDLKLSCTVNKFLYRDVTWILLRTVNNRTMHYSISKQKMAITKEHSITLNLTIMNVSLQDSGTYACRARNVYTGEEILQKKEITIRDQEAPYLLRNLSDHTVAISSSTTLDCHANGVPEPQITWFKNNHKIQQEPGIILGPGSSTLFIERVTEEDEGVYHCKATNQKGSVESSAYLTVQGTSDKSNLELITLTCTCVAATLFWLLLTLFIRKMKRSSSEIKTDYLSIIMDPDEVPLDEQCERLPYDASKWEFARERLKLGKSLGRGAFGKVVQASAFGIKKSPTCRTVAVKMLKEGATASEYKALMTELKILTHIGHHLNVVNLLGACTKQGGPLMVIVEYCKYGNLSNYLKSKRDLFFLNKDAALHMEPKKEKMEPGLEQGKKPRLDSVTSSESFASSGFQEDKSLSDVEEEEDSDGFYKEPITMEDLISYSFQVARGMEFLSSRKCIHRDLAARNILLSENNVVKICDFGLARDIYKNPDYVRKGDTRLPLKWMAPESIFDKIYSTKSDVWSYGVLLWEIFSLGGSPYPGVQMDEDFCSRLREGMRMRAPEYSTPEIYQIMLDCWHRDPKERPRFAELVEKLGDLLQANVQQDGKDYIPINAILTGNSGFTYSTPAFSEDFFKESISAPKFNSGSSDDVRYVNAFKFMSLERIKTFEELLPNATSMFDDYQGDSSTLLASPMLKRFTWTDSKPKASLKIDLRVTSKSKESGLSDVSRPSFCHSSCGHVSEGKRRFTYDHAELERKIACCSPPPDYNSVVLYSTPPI

O=S(=O)(c1cn(CCF)cn1)n1ccc2ncc(-c3cn[nH]c3)nc21 [Compound 13, 5-((1-(2-fluoroethyl)-1H-imidazol-4-yl)sulfonyl)-3-(1H-pyrazol-4-yl)-5H-pyrrolo[2,3-b]pyrazine]
inhibition at 0.01 µM ([1]; 10 nM): 0%
inhibition at 0.1 µM ([1]; 100 nM): 4.9%
inhibition at 1 µM ([1]; 1000 nM): 0%
inhibition at 0.01 µM ([2]; 10 nM): -3.8%
inhibition at 0.1 µM ([2]; 100 nM): 3%
inhibition at 1 µM ([2]; 1000 nM): 11.8%
inhibition at 0.01 µM ([3]; 0.01 μM (10 nM), mean of two separate experiments): > 90%
inhibition at 0.1 µM ([3]; 0.1 μM, mean of two separate experiments): 91.7%
inhibition at 1 µM ([3]; 1 μM, mean of two separate experiments): 100%
IC50 ([3]; mean ± SD from two separate experiments): 0.6 ± 0.2 nM
inhibition at 0.01 µM ([4]; 10 nM): 0%
inhibition at 0.1 µM ([4]; 100 nM): 0%
inhibition at 1 µM ([4]; 1000 nM): 0%
inhibition at 0.01 µM ([5]; 10 nM): 0%
inhibition at 0.1 µM ([5]; 100 nM): 0%
inhibition at 1 µM ([5]; 1000 nM): 0%
IC50 [6]: 29.1 ± 5.5 nM
inhibition at 0.01 µM ([7]; 10 nM): 3.9%
inhibition at 0.1 µM ([7]; 100 nM): 3.9%
Kinase Inhibition (%) c-Met ([7]; 1000 nM (1 μM)): nearly no inhibition
inhibition at 1 µM ([7]; 1000 nM (1 μM)): 4.6%
inhibition at 0.01 µM ([8]; 10 nM): -3.8%
inhibition at 0.1 µM ([8]; 100 nM): 3%
inhibition at 1 µM ([8]; 1000 nM): 11.8%
inhibition at 0.01 µM ([9]; 10 nM): 21.9%
inhibition at 0.1 µM ([9]; 100 nM): 20.9%
inhibition at 1 µM ([9]; 1000 nM): 23.2%
inhibition at 0.01 µM ([10]; 10 nM): 42.9%
inhibition at 0.1 µM ([10]; 100 nM): 79%
inhibition at 1 µM ([10]; 1000 nM): 88.9%
microsomal CLint at 1 μM [11]: 1 µL/min/mg
inhibition at 0.01 µM ([12]; 10 nM): 0%
inhibition at 0.1 µM ([12]; 100 nM): 0%
inhibition at 1 µM ([12]; 1000 nM): 0%
inhibition at 0.01 µM ([13]; 10 nM): 0%
inhibition at 0.1 µM ([13]; 100 nM): 0%
inhibition at 1 µM ([13]; 1000 nM): 0%
inhibition at 0.01 µM ([14]; 10 nM): 7.4%
inhibition at 0.1 µM ([14]; 100 nM): 17.1%
inhibition at 1 µM ([14]; 1000 nM): 46.3%
